These results are taken from ChEMBL document CHEMBL5465560, “Selectivity Literature for EUbOPEN Chemogenomic Library” (2024).

The test system of test [1] is Proto-oncogene tyrosine-protein kinase receptor Ret (Homo sapiens), P07949 [V804M]. Conditions: at 10 µM.
For test [2], the target named is T1, Histone-lysine N-methyltransferase NSD3 (Homo sapiens) (UniProt Q9BZ95).
T1 sequence (whole entry): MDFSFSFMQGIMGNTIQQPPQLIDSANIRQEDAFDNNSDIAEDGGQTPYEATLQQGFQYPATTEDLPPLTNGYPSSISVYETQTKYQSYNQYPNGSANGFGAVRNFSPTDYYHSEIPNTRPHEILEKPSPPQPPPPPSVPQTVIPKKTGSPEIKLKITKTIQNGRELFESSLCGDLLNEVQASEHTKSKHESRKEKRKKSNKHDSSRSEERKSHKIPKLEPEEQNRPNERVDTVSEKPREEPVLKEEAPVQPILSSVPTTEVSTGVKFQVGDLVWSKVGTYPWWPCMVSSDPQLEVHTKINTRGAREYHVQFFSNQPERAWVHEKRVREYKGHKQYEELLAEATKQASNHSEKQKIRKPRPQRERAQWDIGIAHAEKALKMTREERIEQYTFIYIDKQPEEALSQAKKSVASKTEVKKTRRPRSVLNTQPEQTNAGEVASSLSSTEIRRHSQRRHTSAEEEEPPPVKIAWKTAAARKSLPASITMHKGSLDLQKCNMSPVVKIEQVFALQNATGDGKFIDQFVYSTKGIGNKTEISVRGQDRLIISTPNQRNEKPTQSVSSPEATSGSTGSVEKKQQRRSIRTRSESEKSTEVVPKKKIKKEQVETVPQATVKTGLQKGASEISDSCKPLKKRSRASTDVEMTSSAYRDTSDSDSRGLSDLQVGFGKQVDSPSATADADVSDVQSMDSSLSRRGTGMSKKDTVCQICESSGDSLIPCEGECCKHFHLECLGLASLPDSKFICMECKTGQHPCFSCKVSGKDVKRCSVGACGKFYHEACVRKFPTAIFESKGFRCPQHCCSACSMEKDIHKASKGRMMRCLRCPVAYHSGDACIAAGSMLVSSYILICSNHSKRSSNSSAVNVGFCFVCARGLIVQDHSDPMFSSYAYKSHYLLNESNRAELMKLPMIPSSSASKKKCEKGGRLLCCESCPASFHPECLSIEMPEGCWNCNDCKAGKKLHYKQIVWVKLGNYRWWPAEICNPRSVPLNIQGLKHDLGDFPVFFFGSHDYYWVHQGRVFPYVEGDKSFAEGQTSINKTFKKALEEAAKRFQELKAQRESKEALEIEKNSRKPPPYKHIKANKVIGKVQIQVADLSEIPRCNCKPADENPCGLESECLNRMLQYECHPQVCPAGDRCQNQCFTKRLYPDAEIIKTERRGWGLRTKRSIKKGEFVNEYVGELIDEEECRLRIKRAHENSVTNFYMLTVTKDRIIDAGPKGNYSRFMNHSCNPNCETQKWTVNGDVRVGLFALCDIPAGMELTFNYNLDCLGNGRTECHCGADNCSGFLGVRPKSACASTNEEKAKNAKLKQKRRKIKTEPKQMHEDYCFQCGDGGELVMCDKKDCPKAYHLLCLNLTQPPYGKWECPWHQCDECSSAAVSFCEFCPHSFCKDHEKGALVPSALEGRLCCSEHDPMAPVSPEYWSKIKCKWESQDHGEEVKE
As to the kind of experiment: Selectivity interaction (Methyltransferase screen (radiometric assays, panel of 8 PRMTs, 21 protein lysine methyltransferases, 3 DNA methyltransferases, and one RNA methyltransferase)) EUB0000272b NSD3.

The target of test [3] is T2, Hormonally up-regulated neu tumor-associated kinase (Homo sapiens) (UniProt P57058).
T2 sequence (whole entry): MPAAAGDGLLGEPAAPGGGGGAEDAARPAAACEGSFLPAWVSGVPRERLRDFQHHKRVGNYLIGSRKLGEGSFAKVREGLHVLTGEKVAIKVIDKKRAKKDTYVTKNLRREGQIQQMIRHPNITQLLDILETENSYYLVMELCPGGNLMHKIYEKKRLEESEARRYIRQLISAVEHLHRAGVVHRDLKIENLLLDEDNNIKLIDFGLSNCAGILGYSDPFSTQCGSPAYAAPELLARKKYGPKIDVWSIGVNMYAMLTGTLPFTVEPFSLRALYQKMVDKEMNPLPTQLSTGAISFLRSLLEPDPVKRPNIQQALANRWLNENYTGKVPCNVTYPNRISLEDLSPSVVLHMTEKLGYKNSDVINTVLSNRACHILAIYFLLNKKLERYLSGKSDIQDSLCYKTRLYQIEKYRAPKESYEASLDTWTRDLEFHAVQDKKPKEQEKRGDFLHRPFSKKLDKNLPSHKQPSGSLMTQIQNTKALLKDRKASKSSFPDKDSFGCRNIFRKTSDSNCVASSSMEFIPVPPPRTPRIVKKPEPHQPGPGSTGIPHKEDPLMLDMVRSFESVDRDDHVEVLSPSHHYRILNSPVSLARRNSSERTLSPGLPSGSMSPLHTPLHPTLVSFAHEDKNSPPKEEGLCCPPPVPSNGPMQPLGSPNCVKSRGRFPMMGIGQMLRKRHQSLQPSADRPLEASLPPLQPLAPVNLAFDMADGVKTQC
As to the kind of experiment: Selectivity interaction (KinomeScan (DiscoverX)) EUB0001079a HUNK. Particulars: at 1 µM.

Chain of Proto-oncogene tyrosine-protein kinase receptor Ret (Homo sapiens), P07949 [V804M] (P07949 whole entry V804M): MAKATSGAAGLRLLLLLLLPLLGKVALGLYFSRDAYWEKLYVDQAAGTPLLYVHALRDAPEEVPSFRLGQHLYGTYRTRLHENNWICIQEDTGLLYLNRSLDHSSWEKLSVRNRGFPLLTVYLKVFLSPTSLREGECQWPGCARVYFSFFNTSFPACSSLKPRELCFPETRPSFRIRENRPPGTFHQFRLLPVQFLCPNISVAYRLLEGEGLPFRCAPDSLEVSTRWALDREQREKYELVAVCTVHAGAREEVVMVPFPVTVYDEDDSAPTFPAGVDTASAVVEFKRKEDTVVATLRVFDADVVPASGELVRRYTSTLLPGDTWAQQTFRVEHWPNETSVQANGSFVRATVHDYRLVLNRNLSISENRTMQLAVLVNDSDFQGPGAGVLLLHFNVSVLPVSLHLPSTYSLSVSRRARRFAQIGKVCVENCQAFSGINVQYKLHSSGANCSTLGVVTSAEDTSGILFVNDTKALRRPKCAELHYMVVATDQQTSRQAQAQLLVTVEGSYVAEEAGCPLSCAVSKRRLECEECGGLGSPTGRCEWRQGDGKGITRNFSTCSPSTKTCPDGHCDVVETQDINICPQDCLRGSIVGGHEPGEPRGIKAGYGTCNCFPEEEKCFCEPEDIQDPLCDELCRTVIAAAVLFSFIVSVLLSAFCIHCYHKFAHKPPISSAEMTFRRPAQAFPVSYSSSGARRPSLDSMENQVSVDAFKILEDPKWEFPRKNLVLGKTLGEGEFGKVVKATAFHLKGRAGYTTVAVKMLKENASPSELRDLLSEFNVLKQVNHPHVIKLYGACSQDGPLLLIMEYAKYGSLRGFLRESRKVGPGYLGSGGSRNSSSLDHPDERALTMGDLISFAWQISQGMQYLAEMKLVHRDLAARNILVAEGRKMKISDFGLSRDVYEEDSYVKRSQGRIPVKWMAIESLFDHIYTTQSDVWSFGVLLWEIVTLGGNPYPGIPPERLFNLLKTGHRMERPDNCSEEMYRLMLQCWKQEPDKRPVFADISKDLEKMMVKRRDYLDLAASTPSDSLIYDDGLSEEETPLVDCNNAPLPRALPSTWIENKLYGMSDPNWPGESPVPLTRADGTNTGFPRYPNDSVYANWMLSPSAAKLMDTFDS

The compound `Cc1cc([C@@H](C)Nc2ccccc2C(=O)O)c2nc(N3CCOCC3)cc(=O)n2c1` [AZD-6482] had a % of control in test [1] of 100%. Turning to `Cc1cc(C)cc([C@H]2c3cc(C)ccc3NC(=O)CN2C(=O)c2ccc(Br)s2)c1`, the % of activity in test [2] (at 1 µM) is 104%; in test [2] (at 10 µM), 99%.

Turning to `Nc1cnc(N2CCc3cc(S(=O)(=O)Nc4c(F)cc(Cl)cc4F)cc(N4CCCC4=O)c32)nc1` [TP-020n], the % of control in test [3] was 99%.
